Data published in patent publication US6992105B2, “Dipeptide derivatives” (Novartis AG, priority 2001, dated 2006).
Ends that are not written are not given here.

Molecular target: angiotensin converting enzyme (ACE) (Homo sapiens, UniProt P12821)
Test: in vitro inhibition of ACE (hippuryl-histidyl-leucine substrate)
Assay type: biochemical
Conditions: ACE in vitro assay
Procedure: In vitro testing is most appropriate for the free carboxylic acids of the invention. The test compound is dissolved in dimethyl sulfoxide, ethanol or 0.25 M sodium bicarbonate solution, and the solution is diluted with buffer to the desired concentration.
The buffer for the ACE assay is 300 mM NaCl, 100 mM KH2PO4 (pH 8.3). The reaction is initiated by the addition of 100 μL of hippuryl-histidyl-leucine (2 mg/mL) to tubes containing enzyme and drug in a volume of 150 μL and tubes are incubated for 30 minutes at 37° C. The reaction is terminated by the addition of 0.75 mL 0.6 N NaOH. 100 μL of freshly prepared O-pthaldehyde solution (2 mg/mL in methanol) is added to the tubes, the contents are mixed and allowed to stand at room temperature. After 10 minutes, 100 μL of 6 N HCl is added. The tubes are centrifuged and the supernatant optical density is read at 360 nm. The results are plotted against drug concentration to determine the IC50, i.e., the drug concentration which gives half the activity of the control sample containing no drug.

Sequence of angiotensin converting enzyme (ACE) (P12821 30-1306, species assumed): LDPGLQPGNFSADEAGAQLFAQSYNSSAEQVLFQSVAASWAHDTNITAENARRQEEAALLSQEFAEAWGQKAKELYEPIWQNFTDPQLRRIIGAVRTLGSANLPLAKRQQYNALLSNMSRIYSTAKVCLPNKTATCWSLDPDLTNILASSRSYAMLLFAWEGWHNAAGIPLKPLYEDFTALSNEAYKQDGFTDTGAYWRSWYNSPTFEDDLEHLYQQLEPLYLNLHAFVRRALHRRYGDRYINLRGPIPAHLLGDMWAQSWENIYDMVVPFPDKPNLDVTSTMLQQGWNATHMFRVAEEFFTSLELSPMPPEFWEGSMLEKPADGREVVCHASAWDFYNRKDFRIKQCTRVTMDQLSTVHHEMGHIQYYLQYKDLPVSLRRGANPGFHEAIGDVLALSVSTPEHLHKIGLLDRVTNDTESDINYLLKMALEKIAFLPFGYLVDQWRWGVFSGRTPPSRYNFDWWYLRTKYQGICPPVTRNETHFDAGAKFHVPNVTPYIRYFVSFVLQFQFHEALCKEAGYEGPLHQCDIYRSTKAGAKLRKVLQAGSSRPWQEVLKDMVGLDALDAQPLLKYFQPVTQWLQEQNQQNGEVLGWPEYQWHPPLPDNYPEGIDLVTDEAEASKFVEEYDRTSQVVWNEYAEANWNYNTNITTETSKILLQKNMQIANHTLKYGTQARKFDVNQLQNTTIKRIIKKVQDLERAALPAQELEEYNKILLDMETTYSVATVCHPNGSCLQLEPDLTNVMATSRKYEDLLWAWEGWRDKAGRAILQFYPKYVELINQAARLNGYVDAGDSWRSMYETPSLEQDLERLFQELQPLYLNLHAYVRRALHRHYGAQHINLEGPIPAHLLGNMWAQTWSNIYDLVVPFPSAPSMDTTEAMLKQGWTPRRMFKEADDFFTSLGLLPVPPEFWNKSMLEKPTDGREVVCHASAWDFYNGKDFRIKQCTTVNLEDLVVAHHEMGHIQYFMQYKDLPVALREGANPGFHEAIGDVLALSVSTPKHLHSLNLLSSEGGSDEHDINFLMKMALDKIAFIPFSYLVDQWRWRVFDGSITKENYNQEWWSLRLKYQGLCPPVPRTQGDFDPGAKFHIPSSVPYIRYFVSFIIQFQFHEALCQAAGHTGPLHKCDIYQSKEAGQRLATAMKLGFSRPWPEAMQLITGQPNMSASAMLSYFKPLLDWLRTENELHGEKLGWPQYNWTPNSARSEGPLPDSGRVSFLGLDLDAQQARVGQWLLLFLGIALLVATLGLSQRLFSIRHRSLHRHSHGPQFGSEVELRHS

Compound | IC50 [nM]
CC(C)[C@H](S)C(=O)NC(C)(C)C(=O)N[C@@H](COCc1ccccc1)C(=O)O [Example 6(a), N-[2-[(S)-2-Mercapto-3-methylbutanoylamino]-2-methylpropionyl]-O-benzyl-L-serine] | ~20

System: angiotensin I induced pressor response (ACE)
Test: inhibition of the angiotensin I induced pressor response in normotensive rats
Assay type: in vivo, rat
Conditions: 10 mg/kg i.v., conscious normotensive rats
Procedure: The in vivo test for i.v. administered compounds is performed with male, normotensive rats, which are conscious. A femoral artery and femoral vein are cannulated respectively for direct blood pressure measurement on i.v. administration of angiotensin I and i.v. or p.o. administration of a compound of this invention. After the basal blood pressure is stabilized, pressor responses to 3 or 4 challenges of 300 ng/kg angiotensin I i.v., at 15-minute intervals, are obtained. Such pressure responses are usually again obtained at 15, 30, 60 and 90 minutes, and then every hour up to 6 hours after i.v. or p.o. administration of the compound to be tested, and compared with the initial responses. Any observed decrease of said pressor response is an indication of ACE inhibition.

Compound | duration of inhibition of the angiotensin I induced pressor response [h]
CC(C)[C@H](S)C(=O)NC(C)(C)C(=O)N[C@@H](COCc1ccccc1)C(=O)O [Example 6(a), N-[2-[(S)-2-Mercapto-3-methylbutanoylamino]-2-methylpropionyl]-O-benzyl-L-serine] | 3

Molecular target: T1, NEP (EC 3.4.24.11) (Rattus norvegicus, UniProt P07861)
T1 construct: protein (rat kidney cortex membranes prepared by method of Maeda et al., 1983); from tissue; host or cells: rat kidney cortex membranes
T1 sequence (P07861 1-750): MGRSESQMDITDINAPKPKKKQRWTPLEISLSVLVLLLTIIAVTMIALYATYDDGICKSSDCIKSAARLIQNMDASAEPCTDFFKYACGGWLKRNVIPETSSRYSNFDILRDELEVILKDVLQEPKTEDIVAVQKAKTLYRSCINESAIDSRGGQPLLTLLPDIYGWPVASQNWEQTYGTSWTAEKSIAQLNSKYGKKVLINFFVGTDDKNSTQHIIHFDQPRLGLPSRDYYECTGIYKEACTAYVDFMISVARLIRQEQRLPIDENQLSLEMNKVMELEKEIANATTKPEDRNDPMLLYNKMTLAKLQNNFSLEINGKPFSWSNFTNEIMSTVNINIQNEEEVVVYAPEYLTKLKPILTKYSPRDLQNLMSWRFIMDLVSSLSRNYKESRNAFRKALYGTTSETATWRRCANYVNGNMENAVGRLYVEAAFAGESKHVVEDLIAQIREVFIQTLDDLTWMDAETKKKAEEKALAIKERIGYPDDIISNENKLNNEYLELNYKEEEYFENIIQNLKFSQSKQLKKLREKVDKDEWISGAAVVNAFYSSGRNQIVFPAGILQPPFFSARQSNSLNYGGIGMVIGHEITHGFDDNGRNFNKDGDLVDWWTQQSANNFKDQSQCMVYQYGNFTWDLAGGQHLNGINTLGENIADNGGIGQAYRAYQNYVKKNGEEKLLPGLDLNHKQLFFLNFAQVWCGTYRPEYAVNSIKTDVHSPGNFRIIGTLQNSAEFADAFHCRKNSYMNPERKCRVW
Test: in vitro inhibition of NEP (GAAP substrate, rat kidney cortex membranes)
Assay type: biochemical
Conditions: substrate glutaryl-Ala-Ala-Phe-2-naphthylamide (GAAP)
Procedure: The in vitro inhibition of NEP (EC 3.4.24.11) can be determined as follows:
NEP 3.4.24.11 activity is determined by the hydrolysis of the substrate glutaryl-Ala-Ala-Phe-2-naphthylamide (GAAP) using a modified procedure of Orlowski and Wilk (1981). The incubation mixture (total volume 125 μL) contains 4.2 μL of protein (rat kidney cortex membranes prepared by method of Maeda et al., 1983), 50 mM tris buffer, pH 7.4 at 25° C., 500 μM substrate (final concentration), and leucine aminopeptidase M (2.5 μg). The mixture is incubated for 10 minutes at 25° C., and 100 μL of fast garnet (250 μg fast garnet/mL of 10% Tween 20 in 1 M sodium acetate pH 4.2) is added. Enzyme activity is measure spectrophotometrically at […]. One unit of NEP 24.11 activity is defined as 1 nmol of 2-naphthylamine released per minute at 25° C. at pH 7.4. IC50 values are determined, i.e., the concentration of test compound required for 50% inhibition of the release of 2-naphthylamine.
NEP activity can also be determined using ANF as a substrate. ANF degrading activity is determined by measuring the disappearance of rat-ANF (r-ANF) using a 3-minute reverse phase-HPLC separation. An aliquot of the enzyme in 50 mM tris HCl buffer, pH 7.4, is pre-incubated at 37° C. for 2 minutes and the reaction is initiated by the addition of 4 nmol of r-ANF in a total volume of 50 μL. […]

Compound | IC50 [nM]
CC(C)[C@H](S)C(=O)NC(C)(C)C(=O)N[C@@H](COCc1ccccc1)C(=O)O [Example 6(a), N-[2-[(S)-2-Mercapto-3-methylbutanoylamino]-2-methylpropionyl]-O-benzyl-L-serine] | ~5

Molecular target: rabbit antibodies that recognize specifically the carboxyl terminal tryptophan of ET-1
Test: radioimmunoassay: displacement of [125I]ET-1 binding to anti-ET-1 antibodies
Conditions: mean±SEM, n=3–5
Procedure: Diluted samples (200 μL) obtained from the above enzyme assay are incubated at 4° C. overnight with 25 μL each of [^125I]ET-1 (10,000 cpm/tube) and 1:20,000-fold diluted rabbit antibodies that recognize specifically the carboxyl terminal tryptophan of ET-1. Goat anti-rabbit antibodies coupled to magnetic beads (70 μg) are then added to each tube, and the reaction mixture is further incubated for 30 minutes at room temperature. The beads are pelleted using a magnetic rack. The supernatant is decanted, and the radioactivity in the pellet is counted in a gamma counter. Total and nonspecific binding are measured in the absence of non-radioactive ET-1 and anti-ET antibodies, respectively.

Compound | IC50 for displacement of [125I]ET-1 binding to the antibodies
ET-1: endothelin-1, non-radioactive peptide formed from big ET-1 by ECE; standard in the RIA | 21 ± 2 fmol
big ET-1: human big ET-1, substrate of ECE-1 in the enzyme assay (CSCSSLMDKECVYFCHLDIIWVNTPEHVVPYGLGSPRS; ends and bridges not checked; cysteine pairing not given here; UniProt P05305 53-90, looked up) | 260,000±66,000 fmol

System: not given
Test: not given
Conditions: not given

Compound | melting point [°C]
CC(C)[C@H](S)C(=O)NC(C)(C)C(=O)N[C@@H](CCOc1cccc(F)c1)C(=O)O [Example 6(h), N-[2-[(S)-2-mercapto-3-methylbutanoylamino]-2-methylpropionyl]-O-(3-fluorophenyl)-L-homoserine] | 50 to 56
CC(C)[C@H](S)C(=O)NC(C)(C)C(=O)N[C@H](C(=O)O)[C@@H](C)OCc1ccccc1 [Example 6(d), N-[2-[(S)-2-mercapto-3-methylbutanoylamino]-2-methylpropionyl]-O-benzyl-L-threonine] | 61 to 64
CCOC(=O)[C@@H](NC(=O)C(C)(C)NC(=O)[C@@H](SC(C)=O)C(C)C)[C@@H](C)OCc1ccccc1 [Example 1(c), N-[2-[(S)-2-acetylthio-3-methylbutanoylamino]-2-methylpropionyl]-O-benzyl-L-threonine ethyl ester] | 121 to 122
CC(C)[C@H](S)C(=O)NC(C)(C)C(=O)N[C@@H](CCOc1ccc(F)cc1)C(=O)O [Example 6(g), N-[2-[(S)-2-mercapto-3-methylbutanoylamino]-2-methylpropionyl]-O-(4-fluorophenyl)-L-homoserine] | 127 to 128
CC(C)[C@H](S)C(=O)NC1(C(=O)N[C@@H](COCc2ccccc2)C(=O)O)CCCC1 [Example 6(b), N-[1-[(S)-2-mercapto-3-methylbutanoylamino]-cyclopentanecarbonyl]-O-benzyl-L-serine] | 132 to 136
CC(C)[C@H](S)C(=O)NC(C)(C)C(=O)N[C@@H](COCc1ccc(F)cc1)C(=O)O [Example 6(f), N-[2-[(S)-2-mercapto-3-methylbutanoylamino]-2-methylpropionyl]-O-(4-fluorobenzyl)-L-serine] | 50 to 54
CC(C)[C@H](S)C(=O)NC(C)(C)C(=O)N[C@@H](CSCc1ccccc1)C(=O)O [Example 6(c), N-[2-[(S)-2-mercapto-3-methylbutanoylamino]-2-methylpropionyl]-S-benzyl-L-cysteine] | 81 to 87
CCOC(=O)[C@H](COCc1ccccc1)NC(=O)C(C)(C)NC(=O)[C@@H](SC(=O)Cn1cncn1)C(C)C [Example 1(p), N-[2-[(S)-2-[(1-(1,2,4)-triazolyl)acetylthio]-3-methylbutanoylamino]-2-methylpropionyl]-O-benzyl-L-serine ethyl ester] | 106 to 107
CC(C)(NC(=O)[C@@H](S)C(C)(C)C)C(=O)N[C@@H](COCc1ccccc1)C(=O)O [Example 6(e), N-[2-[(S)-2-mercapto-3,3-dimethylbutanoylamino]-2-methylpropionyl]-O-benzyl-L-serine] | 128 to 130
CC(C)(NC(=O)[C@@H](S)C1CCOCC1)C(=O)N[C@@H](COCc1ccccc1)C(=O)O [Example 6(j), N-[2-[(S)-2-mercapto-2-(4-tetrahydropyranyl)acetylamino]-2-methylpropionyl]-O-benzyl-L-serine] | 184 to 189
CCOC(=O)[C@H](COCc1ccccc1)NC(=O)C(C)(C)NC(=O)[C@@H](SC(=O)CN1CCN(C)CC1)C(C)C [Example 1(q), N-[2-[(S)-2-[(4-methylpiperazino)acetylthio]-3-methylbutanoylamino]-2-methylpropionyl]-O-benzyl-L-serine ethyl ester] | 95 to 96
